Source: US7071185B2, “1,2,3,4,7,8-hexahydro-6H-[1,4]diazepino[6,7,1-ij]quinoline derivatives as antipsychotic and antiobesity agents” (Wyeth, priority 2002, dated 2006)
Counter-ions that a name gives are not always drawn. Like-named read-outs stand apart in the source and are kept apart here.

Assays:
[1] = target: T1, human 5-hydroxytryptamine2C (h5HT2C) receptor (Homo sapiens, UniProt P28335); test: 5HT2C receptor binding ([125I]DOI displacement, CHO cell membranes)
T1 construct: expressed in transfected cells; host or cells: CHO (Chinese Hamster Ovary) cells; membrane preparation
T1 sequence (P28335 33-458): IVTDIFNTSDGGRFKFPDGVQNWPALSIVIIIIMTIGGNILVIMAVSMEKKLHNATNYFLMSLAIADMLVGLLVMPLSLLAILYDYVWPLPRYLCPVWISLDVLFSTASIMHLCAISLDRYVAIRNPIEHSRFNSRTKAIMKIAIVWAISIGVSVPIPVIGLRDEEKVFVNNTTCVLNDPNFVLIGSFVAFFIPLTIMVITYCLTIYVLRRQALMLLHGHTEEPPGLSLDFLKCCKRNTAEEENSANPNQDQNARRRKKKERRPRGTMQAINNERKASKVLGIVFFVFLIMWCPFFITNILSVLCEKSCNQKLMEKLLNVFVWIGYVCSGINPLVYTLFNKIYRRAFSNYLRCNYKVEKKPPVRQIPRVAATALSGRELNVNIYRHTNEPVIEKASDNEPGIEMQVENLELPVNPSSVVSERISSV

Structure (SMILES)	Ki [1] [nM]	melting point	further results
c1cc2c3c(c1)C[C@H]1CCCC[C@H]1N3CCNC2 (relative stereo) [Example 2, cis isomer, (Cis)-1,2,3,4,8a,9,10,11,12,12a,-decahydro-8H-[1,4]diazepino[6,7,1-de]acridine]	511	–	–
c1cc2c3c(c1)CC1CCCC1N3CCNC2 (stereo not drawn) (as salt: HCl) [Example 1, trans isomer, Trans-1,2,3,4,8,8a,9,10,11,11a-decahydro-cyclopenta[b][1,4]diazapino[6,7,1-ij]quinoline]	–	190 °C (dec.)	–
CSc1ccc2c(c1)C(N1CCN(C)CC1)Cc1ccccc1S2 (stereo not shown) [Methiothepin, reference compound]	–	–	Ki ([1]; [125I]DOI binding, CHO membranes expressing h5HT2C, read-out: Ki (95% confidence interval), reference compounds): 4.6 nM
c1cc2c3c(c1)CC1CCCCC1N3CCNC2 (stereo not drawn) [Example 2, trans isomer, (Trans)-1,2,3,4,8a,9,10,11,12,12a,-decahydro-8H-[1,4]diazepino[6,7,1-de]acridine]	513	95 °C	–
c1cc2c3c(c1)CC1CCCC1N3CCNC2 (stereo not drawn) [Example 1, trans isomer, Trans-1,2,3,4,8,8a,9,10,11,11a-decahydro-cyclopenta[b][1,4]diazapino[6,7,1-ij]quinoline]	71	–	–
c1cc2c3c(c1)C[C@@H]1CCC[C@@H]1N3CCNC2 (relative stereo) [Example 1, cis isomer, Cis 1,2,3,4,8,8a,9,10,11,11a-decahydro-cyclopenta[b][1,4]diazepino[6,7,1-ij]quinoline]	118	–	–
c1cc2c3c(c1)C[C@H]1CCCC[C@H]1N3CCNC2 (relative stereo) (as salt: HCl) [Example 2, cis isomer, (Cis)-1,2,3,4,8a,9,10,11,12,12a,-decahydro-8H-[1,4]diazepino[6,7,1-de]acridine]	–	150 to 155 °C	–
c1cc2c3c(c1)C[C@@H]1CCC[C@@H]1N3CCNC2 (relative stereo) (as salt: HCl) [Example 1, cis isomer, Cis 1,2,3,4,8,8a,9,10,11,11a-decahydro-cyclopenta[b][1,4]diazepino[6,7,1-ij]quinoline]	–	180 to 190 °C (dec.)	–
COc1cc(CC(C)N)c(OC)cc1I (stereo not shown) [[^125I] DOI, reference compound]	–	–	Kd ([1]; read-out: dissociation constant, KD of [125I] DOI at the human serotonin 5HT2C receptor, saturation binding with increasing concentrations of [125I] DOI): 0.4 nM
